What was measured:
[1] = biological target: T1, HiBit-BRM fusion protein (Homo sapiens, UniProt P51531); assay: HiBiT-BRM cell-based degradation assay (Nano-Glo HiBiT Lytic Detection, 24 h); details: HeLa cells expressing HiBiT-BRM; for DC50: read-out: BRM HiBit Degradation IC50; for BRM HiBit Degradation Maximum measured: top dose 30 μM
T1 construct: expressed in transfected cells
In short: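 Residual HiBiT-BRM in a stable HeLa line was measured by Nano-Glo lytic luminescence after 24 h compound exposure (top final dose 30 μM, 3-fold, 10 points, duplicate). Values are % degradation, scaled between DMSO-treated cells and cells given 2 μM of a known BRM/BRG1 degrader.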

[2] = biological target: T2, HiBit-BRG1 fusion protein (Homo sapiens, UniProt P51532); assay: HiBiT-BRG1 cell-based degradation assay (Nano-Glo HiBiT Lytic Detection, 24 h); details: HeLa cells expressing HiBit-BRG1 and LgBit; for DC50: read-out: BRG1 HiBit Degradation IC50; for Dmax: HeLa, top dose 30 μM, read-out: BRG1 HiBit Degradation Maximum measured
T2 construct: expressed in transfected cells
In short: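 Degradation is scaled from DMSO-treated cells (0%) to cells given 2 μM of a known BRM/BRG1 degrader (100%). HeLa cells stably carrying HiBiT-BRG1 plus LgBiT (5000/well) were lysed with Nano-Glo HiBiT detection reagent, shaken 10 min at RT, and luminescence read.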

T2 sequence (P51532 whole entry, the tested form may be a part): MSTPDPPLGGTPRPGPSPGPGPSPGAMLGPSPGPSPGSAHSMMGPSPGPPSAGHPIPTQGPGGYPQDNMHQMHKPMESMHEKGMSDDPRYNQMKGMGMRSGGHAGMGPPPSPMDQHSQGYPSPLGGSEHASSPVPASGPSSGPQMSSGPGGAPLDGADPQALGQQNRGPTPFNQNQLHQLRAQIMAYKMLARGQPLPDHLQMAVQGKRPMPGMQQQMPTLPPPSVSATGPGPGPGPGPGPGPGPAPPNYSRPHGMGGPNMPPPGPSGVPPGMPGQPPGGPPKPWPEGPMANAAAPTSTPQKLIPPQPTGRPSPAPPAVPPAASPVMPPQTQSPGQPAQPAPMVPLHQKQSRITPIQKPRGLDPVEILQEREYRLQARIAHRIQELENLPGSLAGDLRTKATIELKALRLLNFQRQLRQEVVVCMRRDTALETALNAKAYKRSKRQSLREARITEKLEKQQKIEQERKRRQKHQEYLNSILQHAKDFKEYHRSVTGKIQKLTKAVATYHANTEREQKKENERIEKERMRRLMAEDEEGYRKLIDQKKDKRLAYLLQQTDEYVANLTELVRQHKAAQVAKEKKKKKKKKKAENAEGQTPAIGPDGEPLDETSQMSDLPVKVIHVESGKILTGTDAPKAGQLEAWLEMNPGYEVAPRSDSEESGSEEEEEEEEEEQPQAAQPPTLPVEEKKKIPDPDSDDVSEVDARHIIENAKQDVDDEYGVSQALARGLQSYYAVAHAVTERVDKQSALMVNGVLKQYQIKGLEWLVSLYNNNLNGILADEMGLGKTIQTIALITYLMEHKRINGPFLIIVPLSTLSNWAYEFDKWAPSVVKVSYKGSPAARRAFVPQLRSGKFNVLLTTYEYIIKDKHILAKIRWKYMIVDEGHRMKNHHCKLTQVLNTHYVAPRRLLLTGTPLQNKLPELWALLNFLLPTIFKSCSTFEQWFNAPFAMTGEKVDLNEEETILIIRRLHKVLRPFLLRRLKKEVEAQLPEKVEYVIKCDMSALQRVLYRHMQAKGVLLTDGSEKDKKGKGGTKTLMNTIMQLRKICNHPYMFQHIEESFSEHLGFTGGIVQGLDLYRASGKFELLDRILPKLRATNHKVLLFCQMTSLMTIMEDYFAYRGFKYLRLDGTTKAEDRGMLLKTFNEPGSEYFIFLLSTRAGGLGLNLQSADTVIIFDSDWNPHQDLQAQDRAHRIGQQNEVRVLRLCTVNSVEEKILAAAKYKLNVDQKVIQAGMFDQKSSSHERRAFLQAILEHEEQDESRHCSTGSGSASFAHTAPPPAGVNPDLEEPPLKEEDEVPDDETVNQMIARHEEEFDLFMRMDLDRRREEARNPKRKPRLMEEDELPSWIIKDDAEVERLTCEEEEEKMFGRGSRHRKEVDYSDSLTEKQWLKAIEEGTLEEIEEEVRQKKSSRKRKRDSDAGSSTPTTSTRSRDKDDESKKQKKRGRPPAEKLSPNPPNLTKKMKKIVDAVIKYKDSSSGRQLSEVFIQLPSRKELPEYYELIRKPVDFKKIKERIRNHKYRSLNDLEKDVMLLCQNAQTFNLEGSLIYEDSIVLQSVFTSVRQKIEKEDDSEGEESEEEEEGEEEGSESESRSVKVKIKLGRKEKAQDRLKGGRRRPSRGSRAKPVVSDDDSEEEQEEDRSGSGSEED
T1 sequence (P51531 whole entry, the tested form may be a part): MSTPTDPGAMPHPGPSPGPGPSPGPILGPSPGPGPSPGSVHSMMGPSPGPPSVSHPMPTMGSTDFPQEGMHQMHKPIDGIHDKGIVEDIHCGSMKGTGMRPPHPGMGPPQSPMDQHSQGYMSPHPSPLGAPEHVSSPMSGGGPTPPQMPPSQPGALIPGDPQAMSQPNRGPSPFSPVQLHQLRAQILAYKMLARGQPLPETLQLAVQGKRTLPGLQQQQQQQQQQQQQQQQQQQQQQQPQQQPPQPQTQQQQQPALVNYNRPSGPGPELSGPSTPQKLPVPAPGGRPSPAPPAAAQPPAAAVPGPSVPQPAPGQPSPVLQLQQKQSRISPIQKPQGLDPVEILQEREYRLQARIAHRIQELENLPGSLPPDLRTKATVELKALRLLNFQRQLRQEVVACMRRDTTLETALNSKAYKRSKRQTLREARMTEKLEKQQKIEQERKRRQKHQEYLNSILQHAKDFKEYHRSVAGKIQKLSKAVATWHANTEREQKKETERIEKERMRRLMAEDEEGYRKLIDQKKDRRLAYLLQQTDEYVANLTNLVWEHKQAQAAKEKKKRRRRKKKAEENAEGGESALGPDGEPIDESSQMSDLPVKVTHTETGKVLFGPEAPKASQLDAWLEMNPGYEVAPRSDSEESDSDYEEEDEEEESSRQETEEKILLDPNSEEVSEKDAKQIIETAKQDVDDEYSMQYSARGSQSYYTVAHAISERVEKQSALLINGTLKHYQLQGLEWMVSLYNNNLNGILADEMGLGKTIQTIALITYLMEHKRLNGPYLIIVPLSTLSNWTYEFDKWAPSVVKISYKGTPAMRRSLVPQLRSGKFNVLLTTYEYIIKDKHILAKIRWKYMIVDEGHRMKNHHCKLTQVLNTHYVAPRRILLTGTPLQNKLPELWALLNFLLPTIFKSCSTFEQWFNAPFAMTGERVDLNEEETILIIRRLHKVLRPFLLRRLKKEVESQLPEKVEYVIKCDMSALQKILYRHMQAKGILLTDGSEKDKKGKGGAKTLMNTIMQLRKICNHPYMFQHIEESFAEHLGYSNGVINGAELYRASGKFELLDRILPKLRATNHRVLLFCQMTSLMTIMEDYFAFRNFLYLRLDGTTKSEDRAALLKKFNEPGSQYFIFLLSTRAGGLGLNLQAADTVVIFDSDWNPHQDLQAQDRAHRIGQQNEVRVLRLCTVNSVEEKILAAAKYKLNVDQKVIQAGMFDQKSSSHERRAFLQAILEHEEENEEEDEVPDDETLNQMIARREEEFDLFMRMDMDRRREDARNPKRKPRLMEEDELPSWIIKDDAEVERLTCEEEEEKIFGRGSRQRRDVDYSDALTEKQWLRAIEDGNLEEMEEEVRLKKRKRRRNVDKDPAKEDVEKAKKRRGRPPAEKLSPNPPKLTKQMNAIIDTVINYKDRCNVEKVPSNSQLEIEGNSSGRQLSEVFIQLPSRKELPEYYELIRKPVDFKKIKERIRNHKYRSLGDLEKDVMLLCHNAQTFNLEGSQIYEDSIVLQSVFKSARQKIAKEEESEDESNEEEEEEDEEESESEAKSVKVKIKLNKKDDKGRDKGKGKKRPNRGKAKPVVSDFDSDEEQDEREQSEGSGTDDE

For `CS(=O)(=O)n1ccc(C(=O)N[C@@H](CCCCNC(=O)C2CC2CNC(=O)COc2cccc3c2C(=O)N(C2CCC(=O)NC2=O)C3=O)C(=O)Nc2nc(-c3ccccc3)cs2)c1` (stereo partly drawn) [Compound 284, (2S)-6-([2-[(2-[[2-(2,6-dioxopiperidin-3-yl)-1,3-dioxoisoindol-4-yl]oxy]acetamido)methyl]cyclopropyl]formamido)-2-[(1-methanesulfonylpyrrol-3-yl)formamido]-N-(4-phenyl-1,3-thiazol-2-yl)hexanamide], the DC50 [1] was over 10 µM, the “BRM HiBit Degradation Maximum measured” value [1] was “C (‘C’ = Maximum degradation <50%)” and the DC50 [2] was over 10 µM. The Dmax [2] was under 50%.
With `CS(=O)(=O)n1ccc(C(=O)N[C@@H](CCOCCCC(=O)NCCOc2cccc(OCCNc3ccc4c(c3)C(=O)N(C3CCC(=O)NC3=O)C4=O)c2)C(=O)Nc2nc(-c3ccccc3)cs2)c1` (stereo partly drawn) [Compound 285, (2S)-4-[3-([2-[3-(2-[[2-(2,6-dioxopiperidin-3-yl)-1,3-dioxoisoindol-5-yl]amino]ethoxy)phenoxy]ethyl]carbamoyl)propoxy]-2-[(1-methanesulfonylpyrrol-3-yl)formamido]-N-(4-phenyl-1,3-thiazol-2-yl)butanamide] the DC50 [1] was over 10 µM, the “BRM HiBit Degradation Maximum measured” value [1] was “C (‘C’ = Maximum degradation <50%)” and the DC50 [2] was over 10 µM. The Dmax [2] was under 50%.
For `CS(=O)(=O)n1ccc(C(=O)N[C@@H](CCOCCCC(=O)NCCNc2ccc3c(c2)C(=O)N(C2CCC(=O)NC2=O)C3=O)C(=O)Nc2nc(-c3ccccc3)cs2)c1` (stereo partly drawn) [Compound 286, (2S)-4-[3-[(2-[[2-(2,6-dioxopiperidin-3-yl)-1,3-dioxoisoindol-5-yl]amino]ethyl)carbamoyl]propoxy]-2-[(1-methanesulfonylpyrrol-3-yl)formamido]-N-(4-phenyl-1,3-thiazol-2-yl)butanamide], the DC50 [1] was over 10 µM, the “BRM HiBit Degradation Maximum measured” value [1] was “C (‘C’ = Maximum degradation <50%)” and the DC50 [2] was over 10 µM. For the same compound, the Dmax [2] was under 50%.
With `CS(=O)(=O)n1ccc(C(=O)N[C@@H](CCOCCCC(=O)NCCCCCNc2ccc3c(c2)C(=O)N(C2CCC(=O)NC2=O)C3=O)C(=O)Nc2nc(-c3ccccc3)cs2)c1` (stereo partly drawn) [Compound 287, (2S)-4-[3-[(5-[[2-(2,6-dioxopiperidin-3-yl)-1,3-dioxoisoindol-5-yl]amino]pentyl)carbamoyl]propoxy]-2-[(1-methanesulfonylpyrrol-3-yl)formamido]-N-(4-phenyl-1,3-thiazol-2-yl)butanamide] the DC50 [1] was over 10 µM, the “BRM HiBit Degradation Maximum measured” value [1] was “C (‘C’ = Maximum degradation <50%)” and the DC50 [2] was over 10 µM. For the same compound, the Dmax [2] was under 50%.
With `CS(=O)(=O)n1ccc(C(=O)N[C@@H](CCCCNC(=O)CCOCCOCCOc2cccc3c2C(=O)N(C2CCC(=O)NC2=O)C3=O)C(=O)Nc2nc(-c3ccccc3)cs2)c1` (stereo partly drawn) [Compound 288, (2S)-6-[3-[2-(2-[[2-(2,6-dioxopiperidin-3-yl)-1,3-dioxoisoindol-4-yl]oxy]ethoxy)ethoxy]propanamido]-2-[(1-methanesulfonylpyrrol-3-yl)formamido]-N-(4-phenyl-1,3-thiazol-2-yl)hexanamide] the DC50 [1] was over 10 µM, the “BRM HiBit Degradation Maximum measured” value [1] was “C (‘C’ = Maximum degradation <50%)” and the DC50 [2] was over 10 µM. The Dmax [2] was under 50%.
With `CS(=O)(=O)n1ccc(C(=O)N[C@@H](CCCCNC(=O)CCCCCCCOc2cccc3c2C(=O)N(C2CCC(=O)NC2=O)C3=O)C(=O)Nc2nc(-c3ccccc3)cs2)c1` (stereo partly drawn) [Compound 289, 8-[[2-(2,6-dioxopiperidin-3-yl)-1,3-dioxoisoindol-4-yl]oxy]-N-[(5S)-5-[(1-methanesulfonylpyrrol-3-yl)formamido]-5-[(4-phenyl-1,3-thiazol-2-yl)carbamoyl]pentyl]octanamide] the DC50 [1] was over 10 µM, the “BRM HiBit Degradation Maximum measured” value [1] was “C (‘C’ = Maximum degradation <50%)” and the DC50 [2] was over 10 µM. The Dmax [2] was under 50%.
